Biological target: T1, human IL-17AA (Homo sapiens, UniProt Q16552)
T1 construct: host or cells: HEK (human embryonic kidney) cells
T1 sequence (Q16552 24-155): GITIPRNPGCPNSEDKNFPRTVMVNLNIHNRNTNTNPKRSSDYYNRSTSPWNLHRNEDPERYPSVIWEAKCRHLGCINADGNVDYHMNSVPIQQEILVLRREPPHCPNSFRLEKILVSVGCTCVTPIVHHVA
Assay: IL-8 release assay in human epithelial keratinocytes adult (HEKa)
Assay type: cell-based
Conditions: HEKa cells, 3 ng/mL HEK-human IL-17AA + 10 ng/mL human TNFalpha; read-out: Rel EC50 IL-8 release assay
How it was run: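 IL-8 release, quantified by HTRF and normalized to controls, reports IL-17 signaling in HEKa cells treated with compound plus final 3 ng/mL IL-17AA (HEK-derived) and 10 ng/mL TNF-alpha for 68-72 h; TNF-alpha-only wells set 100% inhibition. Four-parameter logistic fits (r^2>0.9) give relative IC50 and Emax; PrestoBlue flags cytotoxicity.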

| EC50 | SMILES |
| --- | --- |
| < 100 nM | Cc1n[nH]c(C)c1-c1ccc(NC(=O)[C@@H](NC(=O)c2ccnn2C(C)C)C(C2CC2)C2CC2)cc1 (single isomer, unassigned) [Example 32] |
| > 1000 nM | CNc1[nH]nc(C)c1-c1ccc(NC(=O)[C@@H](NC(=O)c2ccnn2C)C2CCCCC2)cc1 [Example 452, N-[(1S)-1-cyclohexyl-2-[4-[5-methyl-3-(methylamino)-1H-pyrazol-4-yl]anilino]-2-oxo-ethyl]-2-methyl-pyrazole-3-carboxamide] |
| 100 to 1000 nM | Cc1n[nH]c(N(C)C)c1-c1ccc(NC(=O)[C@@H](NC(=O)c2ccnn2C)C2CCCCC2)cc1 [Example 453, N-[(1S)-1-cyclohexyl-2-[4-[3-(dimethylamino)-5-methyl-1H-pyrazol-4-yl]anilino]-2-oxo-ethyl]-2-methyl-pyrazole-3-carboxamide] |
| > 1000 nM | Cc1n[nH]c(C)c1-c1ccc(NC(=O)[C@@H](NC(=O)N(C)CCCO)C2CCCCC2)cc1 [Example 459, (2S)-2-cyclohexyl-N-[4-(3,5-dimethyl-1H-pyrazol-4-yl)phenyl]-2-[[3-hydroxypropyl(methyl)carbamoyl]amino]acetamide] |
| > 1000 nM | CCN(CC)C(=O)N[C@H](C(=O)Nc1ccc(-c2c(C)n[nH]c2C)cc1)C1CCCCC1 [Example 462, (2S)-2-cyclohexyl-2-(diethylcarbamoylamino)-N-[4-(3,5-dimethyl-1H-pyrazol-4-yl)phenyl]acetamide] |
| > 1000 nM | Cc1n[nH]c(C)c1-c1ccc(NC(=O)[C@@H](NC(=O)N(C)CCO)C2CCCCC2)cc1 [Example 463, (2S)-2-cyclohexyl-N-[4-(3,5-dimethyl-1H-pyrazol-4-yl)phenyl]-2-[[2-hydroxyethyl(methyl)carbamoyl]amino]acetamide] |
| > 1000 nM | Cc1n[nH]c(C)c1-c1ccc(NC(=O)[C@@H](NC(=O)N2CCCC2CCCO)C2CCCCC2)cc1 (stereo partly drawn) [Example 468, N-[(1S)-1-cyclohexyl-2-[4-(3,5-dimethyl-1H-pyrazol-4-yl)anilino]-2-oxo-ethyl]-2-(3-hydroxypropyl)-pyrrolidine-1-carboxamide] |
| 100 to 1000 nM | Cc1n[nH]c(C)c1-c1ccc(NC(=O)[C@@H](NC(=O)N(C)C(C)C)C2CCCCC2)cc1 [Example 469, (2S)-2-cyclohexyl-N-[4-(3,5-dimethyl-1H-pyrazol-4-yl)phenyl]-2-[[isopropyl(methyl)carbamoyl]amino]acetamide] |
| > 1000 nM | Cc1n[nH]c(C)c1-c1ccc(NC(=O)[C@@H](NC(=O)N2CCCCC2)C2CCCCC2)cc1 [Example 472, N-[(1S)-1-cyclohexyl-2-[4-(3,5-dimethyl-1H-pyrazol-4-yl)anilino]-2-oxo-ethyl]piperidine-1-carboxamide] |
| > 1000 nM | Cc1n[nH]c(C)c1-c1ccc(NC(=O)[C@@H](NC(=O)N2CCCC2C(C)C)C2CCCCC2)cc1 (stereo partly drawn) [Example 475, N-[(1S)-1-cyclohexyl-2-[4-(3,5-dimethyl-1H-pyrazol-4-yl)anilino]-2-oxo-ethyl]-2-isopropyl-pyrrolidine-1-carboxamide] |
| 100 to 1000 nM | Cc1n[nH]c(C)c1-c1ccc(NC(=O)[C@@H](NC(=O)N(C)CCCCO)C2CCCCC2)cc1 [Example 476, (2S)-2-cyclohexyl-N-[4-(3,5-dimethyl-1H-pyrazol-4-yl)phenyl]-2-[[4-hydroxybutyl(methyl)carbamoyl]amino]acetamide] |
| > 1000 nM | Cc1n[nH]c(C)c1-c1ccc(NC(=O)[C@@H](NC(=O)N2CCCC2)C2CCCCC2)cc1 [Example 477, N-[(1S)-1-cyclohexyl-2-[4-(3,5-dimethyl-1H-pyrazol-4-yl)anilino]-2-oxo-ethyl]pyrrolidine-1-carboxamide] |
| > 1000 nM | Cc1n[nH]c(C)c1-c1ccc(NC(=O)[C@@H](NC(=O)N2CCOCC2)C2CCCCC2)cc1 [Example 478, N-[(1S)-1-cyclohexyl-2-[4-(3,5-dimethyl-1H-pyrazol-4-yl)anilino]-2-oxo-ethyl]morpholine-4-carboxamide] |
| 100 to 1000 nM | Cc1n[nH]c(C)c1-c1ccc(NC(=O)[C@@H](NC(=O)OCCCCO)C(C2CC2)C2CC2)cc1 [Example 479, 4-hydroxy butyl N-[(1S)-1-(dicyclopropylmethyl)-2-[4-(3,5-dimethyl-1H-pyrazol-4-yl)anilino]-2-oxo-ethyl]carbamate] |
| 100 to 1000 nM | Cc1n[nH]c(C)c1-c1ccc(NC(=O)[C@@H](NC(=O)O[C@H](C)CC[C@@H](C)O)C(C2CC2)C2CC2)cc1 [Example 480, [(1R,4R)-4-hydroxy-1-methyl-pentyl] N-[(1S)-1-(dicyclopropylmethyl)-2-[4-(3,5-dimethyl-1H-pyrazol-4-yl)anilino]-2-oxo-ethyl]carbamate] |
| > 1000 nM | Cc1n[nH]c(C)c1-c1ccc(NC(=O)[C@@H](NC(=O)O[C@@H](C)CC[C@H](C)O)C(C2CC2)C2CC2)cc1 [Example 481, [(1S,4S)-4-hydroxy-1-methyl-pentyl] N-[(1S)-1-(dicyclopropylmethyl)-2-[4-(3,5-dimethyl-1H-pyrazol-4-yl)anilino]-2-oxo-ethyl]carbamate] |
| < 100 nM | Cc1nn(COP(=O)(O)O)c(C)c1-c1ccc(NC(=O)[C@@H](NC(=O)c2ccnn2[C@@H](C)CO)C(C2CC2)C2CC2)cc1 [Example 483, Disodium [4-[4-[[(2S)-3,3-dicyclopropyl-2-[[2-[(1S)-2-hydroxy-1-methyl-ethyl]pyrazole-3-carbonyl]amino]propanoyl]amino]phenyl]-3,5-dimethyl-pyrazol-1-yl]methyl phosphate] |

Test system: not listed separately
Assay: In vivo dosing of compounds in dog (pharmacokinetics, PO and i.v.)
Design: species or system dog (male Beagles)
Conditions: male, Beagle, whole blood, oral dose of Example 32 1 mg/kg
Procedure: Example 139. In Vivo Dosing of Compounds in Dog
Dog pharmacokinetics (PK) of Examples 32 and 135 were studied in male Beagles. On the day of dosing, the animals were fasted overnight. They had free access to drinking water, except in immediate connection with dosing, and were allowed to eat from 4 hrs after dosing and onwards. The dogs were weighed on the morning prior to dosing and the individual dose volumes were adjusted on a per kg body weight basis.
Oral dosing. The dogs were dosed PO by oral gavage. The test compounds were dosed as suspensions in 1% methyl cellulose solution (2.5 mL/kg). The stomach tube was then flushed with at least 15 mL water post-dose to ensure that all test formulation entered the stomach.
Intravenous dosing. The dogs were dosed i.v. via an in-dwelling catheter in venae cephalica. The dose volume was 1 mL/kg of a solution of Example 32 (0.3 mg/mL) in HPB (hydroxypropyl beta cyclodextrin)/PEG-4 (polyethylene glycol-4)/water (20:20:60). […]
Study samples. […] The compounds were quantified in blood by means of LC-MS/MS.
Standard PK parameters were calculated using non-compartmental analysis and Phoenix WinNonLin 6.4 (Certara, Princeton, N.J.).
(§1) The bioavailabilty (F) was calculated using the equation below, where AUC is the area under the curve for the oral and i.v. dosing routes and D is the dose given i.v. or orally. […]

| bioavailability | SMILES |
| --- | --- |
| 23% | Cc1n[nH]c(C)c1-c1ccc(NC(=O)[C@@H](NC(=O)c2ccnn2C(C)C)C(C2CC2)C2CC2)cc1 (single isomer, unassigned) [Example 32] |

Test system: not listed separately
Assay: In vivo dosing of compounds in mouse (pharmacokinetics, PO and i.v.)
Conditions: female, Balb/C, whole blood, oral dose of Example 32 50 mg/kg
Procedure: Example 140. In Vivo Dosing of Compounds in Mouse
Mouse pharmacokinetics of Examples 32 and 135 were studied in female Balb/C mice. Animals were not fasted prior to the study and had access to water and certified rodent diet ad libitum during the study. The mice were weighed on the day of the study and the individual dose volumes were adjusted on a per kg body weight basis.
Oral dosing. The mice were dosed by oral gavage. Example 135 was dosed as a suspension in 1% methyl cellulose solution (10 mL/kg). Example 32 was dosed as a suspension in a formulation containing Betadex sulfobutyl ether sodium/PVP (polyvinyl pyrrolidone)/0.1% Citrate buffer pH 3 (20:5:75) (10 mL/kg).
Intravenous dosing. The mice were dosed i.v. via the tail vein. The dose volume was 2 mL/kg of a solution of Example 32 (0.2 mg/mL) in DMSO/ethanol/water/propylene glycol (PG) (2:8:50:40).
Study samples. Blood was collected (exactly 20 μL per time point) from the saphenous vein of each animal into K2EDTA-coated capillaries. […] The compounds were quantified in blood by means of LC-MS/MS.
Standard PK parameters were calculated using non-compartmental analysis in Phoenix WinNonLin 6.4 (Certara, Princeton, N.J.)
as §1

| bioavailability | SMILES |
| --- | --- |
| 26% | Cc1n[nH]c(C)c1-c1ccc(NC(=O)[C@@H](NC(=O)c2ccnn2C(C)C)C(C2CC2)C2CC2)cc1 (single isomer, unassigned) [Example 32] |
